The source of these data is ChEMBL document CHEMBL2321764, “Synthesis and antibacterial activities of new piperidine substituted (5R)-[1,2,3]triazolylmethyl and (5R)-[(4-F-[1,2,3]triazolyl)methyl] oxazolidinones” (Bioorg Med Chem Lett, 2013).

Holding throughout (assay type): functional
The subject of one experiment is Enterococcus faecium. Briefly: Antibacterial activity against vancomycin-resistant Enterococcus faecium C803 by agar dilution method. On the technique in general: Agar dilution tests growth on a series of plates holding different concentrations.
In the next experiment the test system is Enterococcus faecalis. Briefly: Antibacterial activity against vancomycin-resistant Enterococcus faecalis C474 by agar dilution method.
For another experiment, the system named is Streptococcus pyogenes. Briefly: Antibacterial activity against Streptococcus pyogenes 308A by agar dilution method.
The subject of another experiment is Streptococcus pneumoniae. Briefly: Antibacterial activity against penicillin-resistant Streptococcus pneumoniae C402 by agar dilution method.
The test system of a further experiment is Staphylococcus aureus. Briefly: Antibacterial activity against methicillin-resistant Staphylococcus aureus C463 by agar dilution method.
The subject of the next experiment is Streptococcus agalactiae. The experiment is described as follows: Antibacterial activity against Streptococcus agalactiae ATCC 2901 by agar dilution method.
For a further experiment, the system named is Haemophilus influenzae. Briefly: Antibacterial activity against betalactamase positive Haemophilus influenzae by agar dilution method.
The subject of a further experiment is Staphylococcus. The experiment is described as follows: Antibacterial activity against methicillin-resistant coagulase negative Staphylococcus by agar dilution method.

Converted amounts (≈) assume the structure as drawn.

Turning to `N#CCC1=CCN(c2ccc(N3C[C@H](Cn4ccnn4)OC3=O)cc2F)CC1`, the MIC turned out to be 3.12 µg/mL (≈ 8.16 µM) with Enterococcus faecium; 3.12 µg/mL (≈ 8.16 µM) against Enterococcus faecalis; 0.39 µg/mL (≈ 1.02 µM) against Streptococcus pyogenes; 0.39 µg/mL (≈ 1.02 µM) with Streptococcus pneumoniae; 3.12 µg/mL (≈ 8.16 µM) in the experiment on Staphylococcus aureus; 1.56 µg/mL (≈ 4.08 µM) in the experiment on Streptococcus agalactiae. In addition, the MIC is 1.56 µg/mL (≈ 4.08 µM) in the experiment on Haemophilus influenzae and 3.12 µg/mL (≈ 8.16 µM) in the experiment with Staphylococcus.
In the case of `N#CCC1=CCN(c2ccc(N3C[C@H](Cn4cc(F)nn4)OC3=O)cc2F)CC1`, the MIC amounted to 100 µg/mL (≈ 250 µM) with Enterococcus faecium; 100 µg/mL (≈ 250 µM) in the experiment with Enterococcus faecalis; 25 µg/mL (≈ 62.4 µM) against Streptococcus pyogenes; 50 µg/mL (≈ 125 µM) against Streptococcus pneumoniae; 100 µg/mL (≈ 250 µM) with Staphylococcus aureus; 25 µg/mL (≈ 62.4 µM) against Streptococcus agalactiae. The results for the MIC in the experiment with Haemophilus influenzae and with Staphylococcus were 12.5 µg/mL (≈ 31.2 µM) and 100 µg/mL (≈ 250 µM), respectively.
Take `CCOC(=O)CC1=CCN(c2ccc(N3C[C@H](Cn4ccnn4)OC3=O)cc2F)CC1`: the MIC against Enterococcus faecium amounted to 6.25 µg/mL (≈ 14.6 µM); against Enterococcus faecalis it was 6.25 µg/mL (≈ 14.6 µM); with Streptococcus pyogenes it was 1.56 µg/mL (≈ 3.63 µM); against Streptococcus pneumoniae, 1.56 µg/mL (≈ 3.63 µM); in the experiment on Staphylococcus aureus, 6.25 µg/mL (≈ 14.6 µM); in the experiment on Streptococcus agalactiae, 1.56 µg/mL (≈ 3.63 µM). Further, the MIC against Haemophilus influenzae amounted to 3.12 µg/mL (≈ 7.27 µM); in the experiment on Staphylococcus, 6.25 µg/mL (≈ 14.6 µM).
Take `CCOC(=O)C=C1CCN(c2ccc(N3C[C@H](Cn4ccnn4)OC3=O)cc2F)CC1`: the MIC amounted to 25 µg/mL (≈ 58.2 µM) with Enterococcus faecium; 25 µg/mL (≈ 58.2 µM) in the experiment on Enterococcus faecalis; 6.25 µg/mL (≈ 14.6 µM) with Streptococcus pyogenes; 6.25 µg/mL (≈ 14.6 µM) in the experiment with Streptococcus pneumoniae; 25 µg/mL (≈ 58.2 µM) against Staphylococcus aureus; 12.5 µg/mL (≈ 29.1 µM) against Streptococcus agalactiae. Further, the MIC came out at 12.5 µg/mL (≈ 29.1 µM) in the experiment with Haemophilus influenzae and 25 µg/mL (≈ 58.2 µM) with Staphylococcus.
With `CCOC(=O)C=C1CCN(c2ccc(N3C[C@H](Cn4cc(F)nn4)OC3=O)cc2F)CC1`, the MIC against Enterococcus faecium was 100 µg/mL (≈ 223 µM); in the experiment on Enterococcus faecalis it was 100 µg/mL (≈ 223 µM); in the experiment with Streptococcus pyogenes, 50 µg/mL (≈ 112 µM); in the experiment with Streptococcus pneumoniae, 6.25 µg/mL (≈ 14 µM); in the experiment with Staphylococcus aureus, 100 µg/mL (≈ 223 µM); in the experiment on Streptococcus agalactiae, 100 µg/mL (≈ 223 µM). The results for the MIC in the experiment with Haemophilus influenzae and in the experiment with Staphylococcus were 6.25 µg/mL (≈ 14 µM) and 100 µg/mL (≈ 223 µM), respectively.
As to `COC(=O)C=C1CCN(c2ccc(N3C[C@H](Cn4ccnn4)OC3=O)cc2F)CC1`, the MIC against Enterococcus faecium was 6.25 µg/mL (≈ 15 µM); against Enterococcus faecalis it was 3.12 µg/mL (≈ 7.51 µM); in the experiment on Streptococcus pyogenes, 0.78 µg/mL (≈ 1.88 µM); in the experiment on Streptococcus pneumoniae it was 0.78 µg/mL (≈ 1.88 µM); in the experiment with Staphylococcus aureus, 3.12 µg/mL (≈ 7.51 µM); in the experiment with Streptococcus agalactiae, 1.56 µg/mL (≈ 3.76 µM). The figures for the MIC in the experiment on Haemophilus influenzae and in the experiment with Staphylococcus were 1.56 µg/mL (≈ 3.76 µM) and 3.12 µg/mL (≈ 7.51 µM), respectively.
With `CCOC(=O)C(C)=C1CCN(c2ccc(N3C[C@H](Cn4ccnn4)OC3=O)cc2F)CC1`, the MIC against Enterococcus faecium came out at 6.25 µg/mL (≈ 14.1 µM); with Enterococcus faecalis it was 6.25 µg/mL (≈ 14.1 µM); against Streptococcus pyogenes, 0.78 µg/mL (≈ 1.76 µM); in the experiment on Streptococcus pneumoniae, 0.78 µg/mL (≈ 1.76 µM); against Staphylococcus aureus, 12.5 µg/mL (≈ 28.2 µM); against Streptococcus agalactiae it was 1.56 µg/mL (≈ 3.52 µM). Also, the MIC came to 1.56 µg/mL (≈ 3.52 µM) with Haemophilus influenzae and 12.5 µg/mL (≈ 28.2 µM) against Staphylococcus.
`CCOC(=O)C(C)=C1CCN(c2ccc(N3C[C@H](Cn4cc(F)nn4)OC3=O)cc2F)CC1`: the MIC against Enterococcus faecium, against Enterococcus faecalis, with Streptococcus pyogenes, in the experiment with Streptococcus pneumoniae, with Staphylococcus aureus and with Streptococcus agalactiae was 100 µg/mL (≈ 217 µM) in each case. In addition, the MIC with Haemophilus influenzae and against Staphylococcus was 100 µg/mL (≈ 217 µM) each time.
For `CCOC(=O)C(Cl)=C1CCN(c2ccc(N3C[C@H](Cn4ccnn4)OC3=O)cc2F)CC1`, the MIC in the experiment on Enterococcus faecium is 25 µg/mL (≈ 53.9 µM); against Enterococcus faecalis, 12.5 µg/mL (≈ 26.9 µM); in the experiment on Streptococcus pyogenes, 6.25 µg/mL (≈ 13.5 µM); in the experiment on Streptococcus pneumoniae it was 12.5 µg/mL (≈ 26.9 µM); with Staphylococcus aureus, 25 µg/mL (≈ 53.9 µM); in the experiment with Streptococcus agalactiae, 6.25 µg/mL (≈ 13.5 µM). Also, the MIC in the experiment on Haemophilus influenzae is 6.25 µg/mL (≈ 13.5 µM); against Staphylococcus, 25 µg/mL (≈ 53.9 µM).
Take `CCOC(=O)C(Cl)=C1CCN(c2ccc(N3C[C@H](Cn4cc(F)nn4)OC3=O)cc2F)CC1`: the MIC in the experiment with Enterococcus faecium was found to be 100 µg/mL (≈ 208 µM); against Enterococcus faecalis, 100 µg/mL (≈ 208 µM); against Streptococcus pyogenes, 50 µg/mL (≈ 104 µM); against Streptococcus pneumoniae, 100 µg/mL (≈ 208 µM); in the experiment on Staphylococcus aureus, 100 µg/mL (≈ 208 µM); against Streptococcus agalactiae, 25 µg/mL (≈ 51.9 µM). Also, the MIC with Haemophilus influenzae is 50 µg/mL (≈ 104 µM); with Staphylococcus, 100 µg/mL (≈ 208 µM).
With `N#CC1(O)CCN(c2ccc(N3C[C@H](Cn4ccnn4)OC3=O)cc2F)CC1`, the MIC came out at 3.12 µg/mL (≈ 8.07 µM) against Enterococcus faecium; 3.12 µg/mL (≈ 8.07 µM) against Enterococcus faecalis; 0.78 µg/mL (≈ 2.02 µM) with Streptococcus pyogenes; 0.78 µg/mL (≈ 2.02 µM) with Streptococcus pneumoniae; 3.12 µg/mL (≈ 8.07 µM) against Staphylococcus aureus; 1.56 µg/mL (≈ 4.04 µM) in the experiment with Streptococcus agalactiae. Also, the MIC against Haemophilus influenzae was found to be 1.56 µg/mL (≈ 4.04 µM); in the experiment with Staphylococcus it was 3.12 µg/mL (≈ 8.07 µM).
For the molecule `N#CC1(O)CCN(c2ccc(N3C[C@H](Cn4cc(F)nn4)OC3=O)cc2F)CC1`, the MIC against Enterococcus faecium stood at 100 µg/mL (≈ 247 µM); with Enterococcus faecalis it was 100 µg/mL (≈ 247 µM); against Streptococcus pyogenes, 6.25 µg/mL (≈ 15.5 µM); with Streptococcus pneumoniae it was 6.25 µg/mL (≈ 15.5 µM); against Staphylococcus aureus, 100 µg/mL (≈ 247 µM); in the experiment with Streptococcus agalactiae it was 12.5 µg/mL (≈ 30.9 µM). The MIC came out at 6.25 µg/mL (≈ 15.5 µM) in the experiment with Haemophilus influenzae and 100 µg/mL (≈ 247 µM) against Staphylococcus.
In the case of `N#CC1=CCN(c2ccc(N3C[C@H](Cn4ccnn4)OC3=O)cc2F)CC1`, the MIC came to 3.12 µg/mL (≈ 8.47 µM) against Enterococcus faecium; 3.12 µg/mL (≈ 8.47 µM) against Enterococcus faecalis; 1.56 µg/mL (≈ 4.23 µM) with Streptococcus pyogenes; 1.56 µg/mL (≈ 4.23 µM) in the experiment on Streptococcus pneumoniae; 3.12 µg/mL (≈ 8.47 µM) with Staphylococcus aureus; 1.56 µg/mL (≈ 4.23 µM) against Streptococcus agalactiae. The figures for the MIC in the experiment with Haemophilus influenzae and against Staphylococcus were 1.56 µg/mL (≈ 4.23 µM) and 3.12 µg/mL (≈ 8.47 µM), respectively.
For the molecule `N#CC1=CCN(c2ccc(N3C[C@H](Cn4cc(F)nn4)OC3=O)cc2F)CC1`, the MIC against Enterococcus faecium is 50 µg/mL (≈ 129 µM); with Enterococcus faecalis it was 50 µg/mL (≈ 129 µM); against Streptococcus pyogenes it was 50 µg/mL (≈ 129 µM); against Streptococcus pneumoniae, 6.25 µg/mL (≈ 16.2 µM); in the experiment on Staphylococcus aureus, 100 µg/mL (≈ 259 µM); against Streptococcus agalactiae, 100 µg/mL (≈ 259 µM). Besides, the MIC in the experiment with Haemophilus influenzae is 6.26 µg/mL (≈ 16.2 µM); with Staphylococcus, 100 µg/mL (≈ 259 µM).
As to `CC(=O)NC[C@H]1CN(c2ccc(N3CCC(=CC#N)CC3)c(F)c2)C(=O)O1`, the MIC with Enterococcus faecium is 3.12 µg/mL (≈ 8.38 µM); against Enterococcus faecalis, 3.12 µg/mL (≈ 8.38 µM); in the experiment on Streptococcus pyogenes, 0.78 µg/mL (≈ 2.09 µM); in the experiment with Streptococcus pneumoniae, 0.39 µg/mL (≈ 1.05 µM); with Staphylococcus aureus, 3.12 µg/mL (≈ 8.38 µM); against Streptococcus agalactiae it was 0.78 µg/mL (≈ 2.09 µM). In addition, the MIC came to 0.78 µg/mL (≈ 2.09 µM) against Haemophilus influenzae and 3.12 µg/mL (≈ 8.38 µM) against Staphylococcus.
